Measurements reported in patent publication US20100204340A1 (priority 2009, published 2010).
Converted amounts (≈) assume the structure as drawn.

Key:
[1] = target: T1, SIRT1 polypeptide (Homo sapiens, UniProt Q96EB6); assay: SIRT 1 Direct fluorescent Screening Assay kit (Cayman); format: biochemical; conditions: read-out: Percentage SIRT 1 modulation; for activation at 1 µg/mL: 1 μg/ml; for activation at 10 µg/mL: 10 μg/ml
T1 construct: purchased Cayman Chemical Company 10010401
T1 sequence (Q96EB6 1-747): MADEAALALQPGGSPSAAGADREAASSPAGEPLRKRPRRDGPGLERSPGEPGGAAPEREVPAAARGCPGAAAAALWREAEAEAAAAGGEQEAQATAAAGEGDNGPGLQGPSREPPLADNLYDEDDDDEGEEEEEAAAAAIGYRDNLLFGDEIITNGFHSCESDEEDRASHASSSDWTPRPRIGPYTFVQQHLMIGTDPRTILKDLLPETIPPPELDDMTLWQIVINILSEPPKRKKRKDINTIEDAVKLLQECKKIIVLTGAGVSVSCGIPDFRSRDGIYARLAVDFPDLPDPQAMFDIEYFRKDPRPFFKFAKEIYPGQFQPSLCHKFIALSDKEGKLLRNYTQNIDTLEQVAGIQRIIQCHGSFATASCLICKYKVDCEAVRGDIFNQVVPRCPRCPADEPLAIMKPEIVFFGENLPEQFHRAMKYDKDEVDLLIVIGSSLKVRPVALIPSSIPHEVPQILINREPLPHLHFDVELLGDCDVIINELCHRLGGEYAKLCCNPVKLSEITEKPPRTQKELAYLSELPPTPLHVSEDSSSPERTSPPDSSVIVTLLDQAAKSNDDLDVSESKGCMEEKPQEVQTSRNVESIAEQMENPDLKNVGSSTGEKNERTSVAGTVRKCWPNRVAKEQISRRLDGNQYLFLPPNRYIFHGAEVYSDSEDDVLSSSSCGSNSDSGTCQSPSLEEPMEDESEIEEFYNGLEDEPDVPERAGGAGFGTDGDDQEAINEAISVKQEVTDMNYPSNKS
Protocol: SIRT-1 activation/inhibition was measured using the SIRT 1 Direct fluorescent Screening Assay kit (Catalog No. 10010401) and instructions provided therein of Cayman Chemical Company, 1180 East Ellsworth Road, Ann Arbor, Mich. 48108 USA. (http://www.caymanchem.com/pdfs/10010401.pdf)

[2] = target: tyrosinase; assay: Anti tyrosinase activity; format: biochemical
[3] = test system: Bacterial reverse mutation; assay: Bacterial reverse mutation assay (AMES); format: cell-based; conditions: presence and absence of metabolic activation, upto 415 μg/ml
Protocol: 3-hydroxypterostilbene is non mutagenic in the Bacterial reverse mutation assay (AMES), both in the presence and absence of metabolic activation, upto a workable concentration of 415 μg/ml.

[4] = test system: B16F1 mouse melanoma cell line; assay: Melanin inhibitory assay; format: cell-based; conditions: B16-F1
[5] = target: α-glucosidase; assay: Anti α-glucosidase activity; format: biochemical
[6] = Pharmacokinetics in serum and urine upon oral administration; format: in vivo, rats; conditions: rat, in vivo, po, 100 mg/kg
Protocol: The compound in its free and conjugated form is freely absorbed into systemic circulation with the glucoronide detected up to 72 hours.
(FIG. 4). The compound in its free and conjugated form appears in systemic circulation within 15 minutes of administration.

[7] = target: collagenase; assay: Anti collagenase assay; format: biochemical
[8] = test system: Sprague Dawley rats; assay: in vivo; conditions: rat, po
Protocol: (§1) Repeated dose 90 day Oral toxicity study for 3HPT in Sprague Dawley rats: The study was conducted to evaluate the possible health hazards likely to arise from repeated exposure to 3HPT over a relatively limited period of time. The study was conducted in six groups consisting of 120 rats with 60 males and 60 females. Group-I, I (R), II, III, IV and IV (R) served as Control, Control Recovery, Low dose (20 mg/kg Bwt), Mid dose (80 mg/kg Bwt), High dose (200 mg/kg Bwt) and High dose Recovery (200 mg/kg Bwt) groups respectively. The test item or vehicle was administered through oral route by gavage to animals daily for 90 days. The animals of Control group and Control recovery group were administered with Corn oil. The vehicle and test item administration to Control Recovery and High dose Recovery group animals respectively was stopped after 90 days of administration and observed for another 28 days to evaluate the effects during recovery period. […] Body weights and food consumptions were recorded at weekly intervals. On completion of 90 days for treatment groups or 118 days for recovery groups respectively, the blood samples were collected from all the animals and subjected to haematological and clinical chemistry evaluation. At termination the animals were humanely sacrificed and subjected to necropsy examination. […]

[9] = in vivo; conditions: both sexes, Sprague Dawley, rat, po
Protocol: as §1

[10] = target: Elastase; assay: Anti Elastase assay; format: biochemical
[11] = DPPH scavenging assay
[12] = Oxygen Radical Absorbance Capacity (ORAC)

SMILES	activation at 1 µg/mL [1] [%]	activation at 10 µg/mL [1] [%]	IC50, anti tyrosinase activity [2]	Mutagenicity [3]	IC50 [4] [µg/mL]	IC50, anti α-glucosidase [5]	Oral bioavailability (free form and glucoronide) [6]	Time to appearance in systemic circulation (free and conjugated form) [6] [min]	Urinary excretion form [6]	IC50, anti collagenase [7]	Necropsy and histopathology examination of tissues and organs [8]	NOAEL at 90 days [9] [mg/kg]	IC50, anti Elastase [10]	SC50, DPPH scavenging [11]	Oxygen Radical Absorbance Capacity (ORAC) [12] [μmol TE/100 g]
Oc1ccc(/C=C/c2cc(O)cc(O)c2)cc1 [Resveratrol, 3,4′,5-trihydroxy-trans-stilbene]	138	291	–	–	–	–	–	–	–	–	–	–	–	–	–
COc1cc(/C=C/c2ccc(O)c(O)c2)cc(OC)c1 [3-hydroxypterostilbene]	224	669	IC50 is 2 μg/ml	non mutagenic	0.7 (≈ 2.57 µM)	IC50 is 203.7 μg/ml	orally bioavailable	≤ 15	excreted predominantly as glucoronides in the urine	IC50 is 90 μg/ml	did not reveal any pathological changes	200	IC50 is 82 μg/ml	SC50 is 1.34 μg/ml	13334 ± 323
